Laboratory results reported in the supplement of paper PMC13386468.
pIC50: −log10 of the molar value.

How the values were obtained:
Assay in all cases: IC50 for competition of protein binding to Kinobeads
Conditions in all cases: assay detail: Kinobeads competition in P. falciparum blood-stage lysate
Q8ICR0 = Q8ICR0 (UniProt O15865)
UniProt C0H491 = biological target: UniProt C0H491
UniProt C0H4M6 = biological target: UniProt C0H4M6
UniProt C0H4S8 = biological target: UniProt C0H4S8
UniProt C0H564 = biological target: UniProt C0H564
UniProt C0H571 = biological target: UniProt C0H571
UniProt C6KT64 = biological target: UniProt C6KT64
UniProt O97240 = biological target: UniProt O97240
UniProt P46468 = biological target: UniProt P46468
UniProt P61076 = biological target: UniProt P61076
UniProt Q76NM3 = biological target: UniProt Q76NM3
UniProt Q7KQL9 = biological target: UniProt Q7KQL9
UniProt Q8I1U8 = biological target: UniProt Q8I1U8
UniProt Q8I202 = biological target: UniProt Q8I202
UniProt Q8I283 = biological target: UniProt Q8I283
UniProt Q8I374 = biological target: UniProt Q8I374
UniProt Q8I3M5 = biological target: UniProt Q8I3M5
UniProt Q8I3Z5 = biological target: UniProt Q8I3Z5
UniProt Q8I4Q5 = biological target: UniProt Q8I4Q5
UniProt Q8I4V7 = biological target: UniProt Q8I4V7
UniProt Q8IB72 = biological target: UniProt Q8IB72
UniProt Q8IBC3 = biological target: UniProt Q8IBC3
UniProt Q8IBN7 = biological target: UniProt Q8IBN7
UniProt Q8IBT7 = biological target: UniProt Q8IBT7
UniProt Q8IBV7 = biological target: UniProt Q8IBV7
UniProt Q8IBY4 = biological target: UniProt Q8IBY4
UniProt Q8IDB0 = biological target: UniProt Q8IDB0
UniProt Q8IDD4 = biological target: UniProt Q8IDD4
UniProt Q8IDW1 = biological target: UniProt Q8IDW1
UniProt Q8II24 = biological target: UniProt Q8II24
UniProt Q8IIB4 = biological target: UniProt Q8IIB4
UniProt Q8III3 = biological target: UniProt Q8III3
UniProt Q8IIM5 = biological target: UniProt Q8IIM5
UniProt Q8IIR0 = biological target: UniProt Q8IIR0
UniProt Q8IJ72 = biological target: UniProt Q8IJ72
UniProt Q8IJA9 = biological target: UniProt Q8IJA9
UniProt Q8IJM0 = biological target: UniProt Q8IJM0
UniProt Q8IJW0 = biological target: UniProt Q8IJW0
UniProt Q8IJX0 = biological target: UniProt Q8IJX0
UniProt Q8IJZ7 = biological target: UniProt Q8IJZ7
UniProt Q8IK91 = biological target: UniProt Q8IK91
UniProt Q8IKB0 = biological target: UniProt Q8IKB0
UniProt Q8IKI9 = biological target: UniProt Q8IKI9
UniProt Q8IKM5 = biological target: UniProt Q8IKM5
UniProt Q8IKV6 = biological target: UniProt Q8IKV6
UniProt Q8IL13 = biological target: UniProt Q8IL13
UniProt Q8IL41 = biological target: UniProt Q8IL41
UniProt Q8IL94 = biological target: UniProt Q8IL94
UniProt Q8ILI9 = biological target: UniProt Q8ILI9
UniProt Q8ILP3 = biological target: UniProt Q8ILP3
UniProt Q8IM01 = biological target: UniProt Q8IM01

Measured: pIC50
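Note: native unpurified kinases from lysate captured on beads bearing immobilized kinase inhibitors, with bead-bound kinases quantified by mass spectrometry across compound doses.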

Sequence of UniProt P61076 (P61076 whole entry): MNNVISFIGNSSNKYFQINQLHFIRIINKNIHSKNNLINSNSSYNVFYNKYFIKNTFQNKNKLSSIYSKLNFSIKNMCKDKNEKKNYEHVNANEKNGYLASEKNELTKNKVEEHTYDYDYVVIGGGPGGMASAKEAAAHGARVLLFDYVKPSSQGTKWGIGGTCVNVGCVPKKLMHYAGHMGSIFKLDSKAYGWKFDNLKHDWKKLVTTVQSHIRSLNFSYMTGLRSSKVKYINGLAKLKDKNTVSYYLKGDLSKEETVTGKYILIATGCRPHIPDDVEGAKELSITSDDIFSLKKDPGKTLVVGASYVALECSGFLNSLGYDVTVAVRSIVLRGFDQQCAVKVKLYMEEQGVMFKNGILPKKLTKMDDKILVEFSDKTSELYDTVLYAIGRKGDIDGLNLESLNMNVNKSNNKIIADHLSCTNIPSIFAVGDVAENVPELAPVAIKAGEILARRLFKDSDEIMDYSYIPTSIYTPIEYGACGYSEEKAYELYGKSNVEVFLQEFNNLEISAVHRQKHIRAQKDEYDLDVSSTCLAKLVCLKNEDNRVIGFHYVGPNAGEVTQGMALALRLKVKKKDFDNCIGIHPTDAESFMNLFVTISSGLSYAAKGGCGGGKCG
Sequence of UniProt C0H571 (C0H571 whole entry): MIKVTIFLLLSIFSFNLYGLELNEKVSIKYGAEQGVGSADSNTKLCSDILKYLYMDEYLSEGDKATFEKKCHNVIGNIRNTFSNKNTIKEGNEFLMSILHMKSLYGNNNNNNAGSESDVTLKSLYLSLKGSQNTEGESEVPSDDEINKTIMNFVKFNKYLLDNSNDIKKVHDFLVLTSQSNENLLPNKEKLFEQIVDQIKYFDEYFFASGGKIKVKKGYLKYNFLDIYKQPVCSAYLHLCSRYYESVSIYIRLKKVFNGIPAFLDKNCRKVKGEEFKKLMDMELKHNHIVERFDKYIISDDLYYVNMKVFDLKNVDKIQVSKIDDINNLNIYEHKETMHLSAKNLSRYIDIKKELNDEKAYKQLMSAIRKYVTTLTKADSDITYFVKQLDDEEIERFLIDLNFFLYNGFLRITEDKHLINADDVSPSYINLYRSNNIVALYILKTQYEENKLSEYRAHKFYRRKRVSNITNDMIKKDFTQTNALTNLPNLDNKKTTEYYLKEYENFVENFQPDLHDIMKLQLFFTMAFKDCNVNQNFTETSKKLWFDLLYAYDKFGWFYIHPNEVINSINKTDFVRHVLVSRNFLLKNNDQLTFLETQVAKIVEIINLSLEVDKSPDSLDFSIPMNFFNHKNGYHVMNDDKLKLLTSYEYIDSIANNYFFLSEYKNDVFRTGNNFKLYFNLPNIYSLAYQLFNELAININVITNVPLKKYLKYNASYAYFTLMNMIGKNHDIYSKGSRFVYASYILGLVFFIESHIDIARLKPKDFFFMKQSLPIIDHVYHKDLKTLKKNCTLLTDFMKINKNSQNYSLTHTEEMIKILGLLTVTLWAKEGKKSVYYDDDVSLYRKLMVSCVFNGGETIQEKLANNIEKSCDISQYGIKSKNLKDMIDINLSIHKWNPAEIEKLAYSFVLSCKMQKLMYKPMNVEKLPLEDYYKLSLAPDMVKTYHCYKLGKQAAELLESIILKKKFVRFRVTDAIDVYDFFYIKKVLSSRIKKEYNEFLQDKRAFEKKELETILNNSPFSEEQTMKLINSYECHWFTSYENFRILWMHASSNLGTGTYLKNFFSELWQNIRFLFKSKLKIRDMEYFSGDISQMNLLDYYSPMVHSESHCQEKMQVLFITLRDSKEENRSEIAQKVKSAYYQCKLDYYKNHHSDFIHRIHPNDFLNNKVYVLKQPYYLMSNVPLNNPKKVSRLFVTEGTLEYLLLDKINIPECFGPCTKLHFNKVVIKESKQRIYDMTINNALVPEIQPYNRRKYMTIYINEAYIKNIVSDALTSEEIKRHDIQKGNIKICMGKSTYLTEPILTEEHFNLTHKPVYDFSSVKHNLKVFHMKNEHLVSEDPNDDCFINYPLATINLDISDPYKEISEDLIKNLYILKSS
Sequence of UniProt O97240 (O97240 whole entry): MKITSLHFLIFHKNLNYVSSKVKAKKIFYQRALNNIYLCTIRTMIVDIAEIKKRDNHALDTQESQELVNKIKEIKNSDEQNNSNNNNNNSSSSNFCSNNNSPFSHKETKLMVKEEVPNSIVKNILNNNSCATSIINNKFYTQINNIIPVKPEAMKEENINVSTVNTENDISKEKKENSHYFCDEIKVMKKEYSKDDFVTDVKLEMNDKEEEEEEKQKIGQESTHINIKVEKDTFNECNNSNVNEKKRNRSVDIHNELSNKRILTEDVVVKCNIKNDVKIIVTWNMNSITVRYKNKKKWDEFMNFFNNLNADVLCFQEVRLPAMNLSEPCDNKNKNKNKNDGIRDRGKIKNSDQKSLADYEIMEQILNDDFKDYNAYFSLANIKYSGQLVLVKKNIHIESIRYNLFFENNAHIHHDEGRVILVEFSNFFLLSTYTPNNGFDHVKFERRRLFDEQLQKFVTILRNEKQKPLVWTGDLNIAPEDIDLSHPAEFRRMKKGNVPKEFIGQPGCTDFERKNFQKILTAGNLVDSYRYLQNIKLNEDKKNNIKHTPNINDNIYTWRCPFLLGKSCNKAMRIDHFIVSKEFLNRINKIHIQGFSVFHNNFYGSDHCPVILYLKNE
Sequence of Q8ICR0 (O15865 whole entry, one chain of several): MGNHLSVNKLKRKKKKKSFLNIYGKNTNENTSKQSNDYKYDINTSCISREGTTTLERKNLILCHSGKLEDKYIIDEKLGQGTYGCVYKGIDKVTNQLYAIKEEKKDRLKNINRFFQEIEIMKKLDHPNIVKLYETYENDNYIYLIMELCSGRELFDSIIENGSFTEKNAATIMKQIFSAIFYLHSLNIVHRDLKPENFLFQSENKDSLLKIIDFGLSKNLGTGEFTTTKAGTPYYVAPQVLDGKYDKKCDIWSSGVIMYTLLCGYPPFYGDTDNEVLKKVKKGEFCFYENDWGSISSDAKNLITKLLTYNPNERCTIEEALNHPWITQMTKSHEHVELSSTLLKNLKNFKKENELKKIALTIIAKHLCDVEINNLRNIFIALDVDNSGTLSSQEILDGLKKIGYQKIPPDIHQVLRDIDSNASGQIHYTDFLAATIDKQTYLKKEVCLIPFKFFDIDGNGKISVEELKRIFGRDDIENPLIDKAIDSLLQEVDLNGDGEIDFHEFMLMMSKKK
Sequence of UniProt Q8IJA9 (Q8IJA9 whole entry): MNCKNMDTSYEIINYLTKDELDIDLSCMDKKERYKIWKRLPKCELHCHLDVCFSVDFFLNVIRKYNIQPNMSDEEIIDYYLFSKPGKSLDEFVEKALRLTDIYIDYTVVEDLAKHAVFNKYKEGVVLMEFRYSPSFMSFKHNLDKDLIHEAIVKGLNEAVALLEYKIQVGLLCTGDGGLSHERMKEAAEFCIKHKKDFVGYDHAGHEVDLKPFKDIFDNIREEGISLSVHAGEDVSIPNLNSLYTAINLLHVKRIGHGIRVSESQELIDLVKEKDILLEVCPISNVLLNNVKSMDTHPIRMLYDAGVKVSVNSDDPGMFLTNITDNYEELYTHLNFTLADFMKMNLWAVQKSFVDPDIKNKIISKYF
Sequence of UniProt P46468 (P46468 whole entry): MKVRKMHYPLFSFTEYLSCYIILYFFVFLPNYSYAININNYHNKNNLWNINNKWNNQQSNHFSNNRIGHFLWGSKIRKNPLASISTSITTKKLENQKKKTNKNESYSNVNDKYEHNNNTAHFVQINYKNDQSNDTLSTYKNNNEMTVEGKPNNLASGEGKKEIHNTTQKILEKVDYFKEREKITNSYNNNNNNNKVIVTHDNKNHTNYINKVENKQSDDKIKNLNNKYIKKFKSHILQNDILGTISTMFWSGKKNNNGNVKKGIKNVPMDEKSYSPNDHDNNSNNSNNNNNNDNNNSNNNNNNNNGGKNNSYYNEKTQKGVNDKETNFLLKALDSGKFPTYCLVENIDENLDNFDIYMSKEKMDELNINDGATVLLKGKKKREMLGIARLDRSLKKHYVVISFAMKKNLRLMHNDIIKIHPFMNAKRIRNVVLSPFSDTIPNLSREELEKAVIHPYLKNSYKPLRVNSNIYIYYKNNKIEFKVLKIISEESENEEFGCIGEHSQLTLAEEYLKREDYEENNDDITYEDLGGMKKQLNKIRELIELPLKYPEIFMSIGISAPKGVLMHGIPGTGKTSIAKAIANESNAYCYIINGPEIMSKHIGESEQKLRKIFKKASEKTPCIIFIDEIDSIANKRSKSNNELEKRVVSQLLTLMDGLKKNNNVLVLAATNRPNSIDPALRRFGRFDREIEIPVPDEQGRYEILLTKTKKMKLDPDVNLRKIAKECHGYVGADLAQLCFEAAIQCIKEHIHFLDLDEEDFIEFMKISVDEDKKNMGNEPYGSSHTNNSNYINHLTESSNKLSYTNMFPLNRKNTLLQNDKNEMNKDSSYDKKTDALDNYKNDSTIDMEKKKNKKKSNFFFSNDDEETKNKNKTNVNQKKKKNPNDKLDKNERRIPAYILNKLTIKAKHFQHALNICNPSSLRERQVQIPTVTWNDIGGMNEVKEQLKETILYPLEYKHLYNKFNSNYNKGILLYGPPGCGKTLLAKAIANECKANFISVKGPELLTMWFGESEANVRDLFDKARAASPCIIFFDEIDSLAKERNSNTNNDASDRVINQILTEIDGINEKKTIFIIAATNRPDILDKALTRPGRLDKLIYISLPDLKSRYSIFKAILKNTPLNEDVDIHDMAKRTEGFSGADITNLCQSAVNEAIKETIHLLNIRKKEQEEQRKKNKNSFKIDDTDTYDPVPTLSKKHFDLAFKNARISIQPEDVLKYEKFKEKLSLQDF
Sequence of UniProt Q8I3Z5 (Q8I3Z5 whole entry): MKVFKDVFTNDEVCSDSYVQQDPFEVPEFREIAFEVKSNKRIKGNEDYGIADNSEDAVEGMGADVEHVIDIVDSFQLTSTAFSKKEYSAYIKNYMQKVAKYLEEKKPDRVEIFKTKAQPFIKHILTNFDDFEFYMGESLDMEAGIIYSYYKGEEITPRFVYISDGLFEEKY

O=c1[nH]c2ccc(Cl)cc2c(NC2CN3CCC2CC3)c1-c1nc2ccccc2[nH]1 (stereo unspecified) [CHIR-124]
< 4.70: Q8ICR0 | UniProt C0H491 | UniProt C0H4M6 | UniProt C0H4S8 | UniProt C0H564 | UniProt C0H571 | UniProt C6KT64 | UniProt O97240 | UniProt P46468 | UniProt P61076 | UniProt Q76NM3 | UniProt Q7KQL9 | UniProt Q8I1U8 | UniProt Q8I202 | UniProt Q8I283 | UniProt Q8I374 | UniProt Q8I3M5 | UniProt Q8I3Z5 | UniProt Q8I4Q5 | UniProt Q8I4V7 | UniProt Q8IB72 | UniProt Q8IBC3 | UniProt Q8IBN7 | UniProt Q8IBT7 | UniProt Q8IBV7 | UniProt Q8IBY4 | UniProt Q8IDB0 | UniProt Q8IDD4 | UniProt Q8IDW1 | UniProt Q8II24 | UniProt Q8IIB4 | UniProt Q8III3 | UniProt Q8IIM5 | UniProt Q8IIR0 | UniProt Q8IJ72 | UniProt Q8IJA9 | UniProt Q8IJM0 | UniProt Q8IJW0 | UniProt Q8IJX0 | UniProt Q8IJZ7 | UniProt Q8IK91 | UniProt Q8IKB0 | UniProt Q8IKI9 | UniProt Q8IKM5 | UniProt Q8IKV6 | UniProt Q8IL13 | UniProt Q8IL41 | UniProt Q8IL94 | UniProt Q8ILI9 | UniProt Q8ILP3 | UniProt Q8IM01
